# Experimental data reported in the NIST ThermoML archive (doi:10.1021/je4003515).
# Numbers after ± are expanded uncertainties.
# Tests used:
# [1] = refractive index (Na D-line) (dimensionless); mn = molality of the nth substance listed, in mol/kg; settings: 298.15 K, 101 kPa, Liquid, Standard Abbe refractometry
# [2] = mn = molality of the nth substance listed, in mol/kg; settings: 101 kPa, Liquid; for viscosity: Capillary tube (Ostwald / Ubbelohde) method; for mass density: Vibrating tube method
compound,measurement,setting,value
CCO [ethanol] + O,refractive index,[1]; m1 = 14,1.355 ± 0.0007
same,refractive index,[1]; m1 = 16,1.3564 ± 0.0007
same,refractive index,[1]; m1 = 18,1.3575 ± 0.0007
same,refractive index,[1]; m1 = 20,1.3583 ± 0.0007
same,refractive index,[1]; m1 = 22,1.3585 ± 0.0007
same,viscosity,"[2]; 293.15 K, m1 = 14",2.895 ± 0.02 mPa·s
same,viscosity,"[2]; 293.15 K, m1 = 16",2.9 ± 0.02 mPa·s
same,viscosity,"[2]; 293.15 K, m1 = 18",2.889 ± 0.02 mPa·s
same,viscosity,"[2]; 293.15 K, m1 = 20",2.878 ± 0.02 mPa·s
same,viscosity,"[2]; 293.15 K, m1 = 22",2.862 ± 0.02 mPa·s
same,mass density,"[2]; 293.15 K, m1 = 14",936.706 ± 1 kg/m3
same,mass density,"[2]; 293.15 K, m1 = 16",930.583 ± 1 kg/m3
same,mass density,"[2]; 293.15 K, m1 = 18",924.182 ± 1 kg/m3
same,mass density,"[2]; 293.15 K, m1 = 20",918.792 ± 1 kg/m3
same,mass density,"[2]; 293.15 K, m1 = 22",913.462 ± 1 kg/m3
same,viscosity,"[2]; 298.15 K, m1 = 14",2.35 ± 0.017 mPa·s
same,viscosity,"[2]; 298.15 K, m1 = 16",2.363 ± 0.017 mPa·s
same,viscosity,"[2]; 298.15 K, m1 = 18",2.365 ± 0.017 mPa·s
same,viscosity,"[2]; 298.15 K, m1 = 20",2.371 ± 0.017 mPa·s
same,viscosity,"[2]; 298.15 K, m1 = 22",2.352 ± 0.017 mPa·s
same,mass density,"[2]; 298.15 K, m1 = 14",933.024 ± 1 kg/m3
same,mass density,"[2]; 298.15 K, m1 = 16",926.799 ± 1 kg/m3
same,mass density,"[2]; 298.15 K, m1 = 18",920.298 ± 1 kg/m3
same,mass density,"[2]; 298.15 K, m1 = 20",914.849 ± 1 kg/m3
same,mass density,"[2]; 298.15 K, m1 = 22",909.466 ± 1 kg/m3
same,viscosity,"[2]; 303.15 K, m1 = 14",1.97 ± 0.014 mPa·s
same,viscosity,"[2]; 303.15 K, m1 = 16",1.988 ± 0.015 mPa·s
same,viscosity,"[2]; 303.15 K, m1 = 18",1.99 ± 0.015 mPa·s
same,viscosity,"[2]; 303.15 K, m1 = 20",1.999 ± 0.015 mPa·s
same,viscosity,"[2]; 303.15 K, m1 = 22",1.989 ± 0.015 mPa·s
same,mass density,"[2]; 303.15 K, m1 = 14",929.265 ± 1 kg/m3
same,mass density,"[2]; 303.15 K, m1 = 16",922.942 ± 1 kg/m3
same,mass density,"[2]; 303.15 K, m1 = 18",916.351 ± 1 kg/m3
same,mass density,"[2]; 303.15 K, m1 = 20",910.842 ± 1 kg/m3
same,mass density,"[2]; 303.15 K, m1 = 22",905.406 ± 1 kg/m3
same,viscosity,"[2]; 308.15 K, m1 = 14",1.673 ± 0.013 mPa·s
same,viscosity,"[2]; 308.15 K, m1 = 16",1.69 ± 0.013 mPa·s
same,viscosity,"[2]; 308.15 K, m1 = 18",1.695 ± 0.013 mPa·s
same,viscosity,"[2]; 308.15 K, m1 = 20",1.704 ± 0.013 mPa·s
same,viscosity,"[2]; 308.15 K, m1 = 22",1.7 ± 0.013 mPa·s
same,mass density,"[2]; 308.15 K, m1 = 14",925.437 ± 1 kg/m3
same,mass density,"[2]; 308.15 K, m1 = 16",919.015 ± 1 kg/m3
same,mass density,"[2]; 308.15 K, m1 = 18",912.337 ± 1 kg/m3
same,mass density,"[2]; 308.15 K, m1 = 20",906.77 ± 1 kg/m3
same,mass density,"[2]; 308.15 K, m1 = 22",901.281 ± 1 kg/m3
same,viscosity,"[2]; 313.15 K, m1 = 14",1.44 ± 0.011 mPa·s
same,viscosity,"[2]; 313.15 K, m1 = 16",1.456 ± 0.012 mPa·s
same,viscosity,"[2]; 313.15 K, m1 = 18",1.462 ± 0.012 mPa·s
same,viscosity,"[2]; 313.15 K, m1 = 20",1.475 ± 0.012 mPa·s
same,viscosity,"[2]; 313.15 K, m1 = 22",1.469 ± 0.012 mPa·s
same,mass density,"[2]; 313.15 K, m1 = 14",921.529 ± 1 kg/m3
same,mass density,"[2]; 313.15 K, m1 = 16",915.018 ± 1 kg/m3
same,mass density,"[2]; 313.15 K, m1 = 18",908.255 ± 1 kg/m3
CCCO [propan-1-ol] + O,refractive index,[1]; m1 = 14,1.364 ± 0.0007
same,refractive index,[1]; m1 = 16,1.3654 ± 0.0007
same,refractive index,[1]; m1 = 18,1.367 ± 0.0007
same,refractive index,[1]; m1 = 20,1.368 ± 0.0007
same,refractive index,[1]; m1 = 22,1.3695 ± 0.0007
same,viscosity,"[2]; 293.15 K, m1 = 14",3.11 ± 0.022 mPa·s
same,viscosity,"[2]; 293.15 K, m1 = 16",3.151 ± 0.022 mPa·s
same,viscosity,"[2]; 293.15 K, m1 = 18",3.176 ± 0.023 mPa·s
same,viscosity,"[2]; 293.15 K, m1 = 20",3.178 ± 0.023 mPa·s
same,mass density,"[2]; 293.15 K, m1 = 14",918.103 ± 1 kg/m3
same,mass density,"[2]; 293.15 K, m1 = 16",911.211 ± 1 kg/m3
same,mass density,"[2]; 293.15 K, m1 = 18",905.417 ± 1 kg/m3
same,mass density,"[2]; 293.15 K, m1 = 20",899.512 ± 1 kg/m3
same,mass density,"[2]; 293.15 K, m1 = 22",895.376 ± 1 kg/m3
same,viscosity,"[2]; 298.15 K, m1 = 14",2.599 ± 0.019 mPa·s
same,viscosity,"[2]; 298.15 K, m1 = 16",2.637 ± 0.019 mPa·s
same,viscosity,"[2]; 298.15 K, m1 = 18",2.663 ± 0.019 mPa·s
same,viscosity,"[2]; 298.15 K, m1 = 20",2.671 ± 0.019 mPa·s
same,mass density,"[2]; 298.15 K, m1 = 14",914.486 ± 1 kg/m3
same,mass density,"[2]; 298.15 K, m1 = 16",907.532 ± 1 kg/m3
same,mass density,"[2]; 298.15 K, m1 = 18",901.687 ± 1 kg/m3
same,mass density,"[2]; 298.15 K, m1 = 20",895.724 ± 1 kg/m3
same,mass density,"[2]; 298.15 K, m1 = 22",891.557 ± 1 kg/m3
same,viscosity,"[2]; 303.15 K, m1 = 14",2.193 ± 0.016 mPa·s
same,viscosity,"[2]; 303.15 K, m1 = 16",2.23 ± 0.016 mPa·s
same,viscosity,"[2]; 303.15 K, m1 = 18",2.255 ± 0.016 mPa·s
same,viscosity,"[2]; 303.15 K, m1 = 20",2.263 ± 0.017 mPa·s
same,mass density,"[2]; 303.15 K, m1 = 14",910.811 ± 1 kg/m3
same,mass density,"[2]; 303.15 K, m1 = 16",903.797 ± 1 kg/m3
same,mass density,"[2]; 303.15 K, m1 = 18",897.899 ± 1 kg/m3
same,mass density,"[2]; 303.15 K, m1 = 20",891.885 ± 1 kg/m3
same,mass density,"[2]; 303.15 K, m1 = 22",887.682 ± 1 kg/m3
same,viscosity,"[2]; 308.15 K, m1 = 14",1.88 ± 0.014 mPa·s
same,viscosity,"[2]; 308.15 K, m1 = 16",1.906 ± 0.014 mPa·s
same,viscosity,"[2]; 308.15 K, m1 = 18",1.93 ± 0.015 mPa·s
same,viscosity,"[2]; 308.15 K, m1 = 20",1.938 ± 0.015 mPa·s
same,mass density,"[2]; 308.15 K, m1 = 14",907.075 ± 1 kg/m3
same,mass density,"[2]; 308.15 K, m1 = 16",899.995 ± 1 kg/m3
same,mass density,"[2]; 308.15 K, m1 = 18",894.048 ± 1 kg/m3
same,mass density,"[2]; 308.15 K, m1 = 20",887.984 ± 1 kg/m3
same,mass density,"[2]; 308.15 K, m1 = 22",883.751 ± 1 kg/m3
same,viscosity,"[2]; 313.15 K, m1 = 14",1.626 ± 0.013 mPa·s
same,viscosity,"[2]; 313.15 K, m1 = 16",1.648 ± 0.013 mPa·s
same,viscosity,"[2]; 313.15 K, m1 = 18",1.67 ± 0.013 mPa·s
same,viscosity,"[2]; 313.15 K, m1 = 20",1.679 ± 0.013 mPa·s
same,mass density,"[2]; 313.15 K, m1 = 14",903.277 ± 1 kg/m3
same,mass density,"[2]; 313.15 K, m1 = 16",896.13 ± 1 kg/m3
same,mass density,"[2]; 313.15 K, m1 = 18",890.133 ± 1 kg/m3
same,mass density,"[2]; 313.15 K, m1 = 20",884.02 ± 1 kg/m3
same,mass density,"[2]; 313.15 K, m1 = 22",879.756 ± 1 kg/m3
